Measurements taken from patent publication EP1951194B1, “ANTIMICROBIAL DECAPEPTIDE COMPOSITION FOR ORAL HYGIENE” (U.S. Government, as represented by the Secretary of the Army, priority 2005, dated 2018).
Entries after “also recorded” stand apart in the source; their conditions may differ. Ends that are not written are not given here.

Columns and labels:
oral biofilms [1] = assay: In vitro plaque assay, viable counts of biofilms on saliva-coated HA disks; type: cell-based, human salivary bacteria; settings: for reduction of viability, intact 66 h-old oral biofilms, compared to water treatment: KSL 200 µg/ml, benzalkonium chloride 0.001%, alone or combined, chlorhexidine positive control
Method: In conjunction with the dual flow cell system, a modification of an in vitro plaque model of biofilm formation described by Guggenheim et al. (Guggenheim et al., 2001) was used to determine the effects of tested antimicrobials and other agents on developed oral biofilms (see Appendix I for details). HA disks (Clarkson, south Williamsport, PA) were employed as substrates for salivary bacteria to form biofilms. […] Following 30 min exposure at 37°C, disks were rinsed with 3 × 1 ml of saline and transferred to sterile 15 ml polypropylene tubes containing 1 ml PBS. Biofilm cells adherent to surfaces (after treatment) were recovered by sonicating for 2 min at 5 watts with a Microson ultrasonic cell disrupter equipped with a cup horn (Misonix Inc., Farmingdale, NY). Settings including the time interval used in the sonication were pre-determined empirically to yield maximal recovery of adherent biofilm cells. The effect of KSL on disrupted biofilms was assessed by recovering biofilm cells from HA disks (45 h-old biofilms) through sonication as described above. The detached biofilm cells (in sterile dH2O) were mixed with an equal volume of aqueous KSL to obtain a final peptide concentration of 200 µg/ml, and the reaction mixtures incubated at 37°C for 30 min. The interactions of KSL and suspended biofilm cells were terminated by washing in PBS. To determine the effect of the surface-active agent (benzalkonium chloride; Sigma, St. […] Viable counts of biofilm cells derived from treated disks or disrupted biofilms were determined by spiral plating serially diluted samples onto blood agar plates. […] The 45 h-old biofilms were exposed to chlorhexidine for 1 min, and to water for 30 min at 37°C.

oral biofilms [2] = assay: Live/dead staining of treated biofilms, confocal laser scanning microscopy; type: cell-based, human salivary bacteria; settings: biofilms on saliva-coated HA surfaces, BacLight, compared to control
Method: Untreated (a-b) and treated (c-d). Images were obtained at intervals of 2 h (a, c) and 8 h (b, d) following inoculation. […] Images of treated versus untreated biofilm cells were obtained at intervals of 2 h (a, d), 6 h (b, e), and 10 h (c, f) after inoculation of salivary bacteria into the parallel chambers of the dual flow cell. […] (C) Confocal images of control and treated biofilms grown on saliva-coated HA surfaces. Live/Dead BacLight™ Viability kit (Molecular Probes, Eugene, OR) was used to assess the viability of biofilm cells exposed to different treatments. BacLight assay solution was prepared as described by the manufacturer and the specimens were stained in dark at room temperature for 15 min. […] An excitation wavelength of 488 nm was used and the fluorescence light emitted was collected by two separate emission filters, 500-530 nm (SYTO 9, live), and 650-710 nm (propidium iodide, dead).

[3] = type: physicochemical; settings: pH 5.7
Method: Test solutions of KSL were prepared using a stock peptide solution of 10 mg/ml in deionized water. The degradation of KSL peptide was investigated in sodium acetate (pH 4), sodium phosphate (pH 7.4) and sodium borate (pH 9) buffers at 0.1 M buffer concentration. Each buffer solution containing 200 µg/ml of KSL was incubated in a temperature-controlled oven at 25, 37 and 55°C, respectively. Samples were taken at pre-determined times and analyzed under HPLC conditions described above. The stability of KSL was studied at 37°C in artificial saliva over a three day period. Artificial saliva was used in the in vitro release studies in an attempt to simulate actual conditions of use. The ingredients of the artificial saliva were as follows: sodium chloride, 0.844 g; potassium chloride, 1.200 g; calcium chloride dihydrate, 0.193 g; magnesium chloride hexahydrate, 0.111 g; potassium phosphate dibasic, 0.342 g; water to make to 1000 ml. The pH was adjusted with hydrochloric acid solution to pH 5.7 ± 0.1 [26].

[4] = type: physicochemical
Method: The chewing gum formulations were prepared following a procedure described previously. The gum base was heated at a temperature between 50 and 60°C for melting. When the gum base was of the proper fluid consistency, the KSL was added as a fine powder along with the other components. The temperature was kept constant while mixing the components with the gum base in a mortar. After mixing, the homogenous chewing gum mixture was extruded, cut into squares of approximate shape and size and hardened at room temperature overnight. The composition of the gum was as follows: 550 mg of gum base, 420 mg of sorbitol, 10 mg of mannitol, 10 mg of saccharin, and 10, 20 or 30 mg of KSL (total weight: approximately 1 g). In vitro release study of KSL from chewing gums was carried out using an in vitro chewing release apparatus consisting of two modules (AB FIA, Lund, Sweden) (Fig. 1). Each module consists of a thermostatted glass cell in which two vertically oriented pistons holding an upper and a lower chewing plate are mounted. The cells were filled with 40 ml of artificial saliva and the chewing gum was loaded onto the lower chewing surface. […] The released amount of KSL was determined by RP-HPLC.

Compound | reduction of viability, intact 66 h-old oral biofilms, compared to water treatment (oral biofilms [1]) | reduction of viability, intact 66 h-old oral biofilms, compared to water treatment (oral biofilms [1]; listed as Bzl) | viability of biofilm cells by live/dead staining (oral biofilms [2]) | reduction of viable counts, intact biofilms (oral biofilms [1]; intact 45-h-old biofilms, KSL 200 µg/ml 30 min at 37°C, chlorhexidine 0.12% 1 min) | degradation in artificial saliva (HPLC) [3] | stability of KSL in the gum formulations manufactured at 50-60°C (HPLC of released KSL) [4]
benzalkonium chloride | less effect on the viability | no significant reductions in viability | less impact on the viability |  |  | 
[H]/N=C(\N/C(=N/[H])NCCCCCCNC(=N)NC(=N)Nc1ccc(Cl)cc1)Nc1ccc(Cl)cc1 [chlorhexidine, chlorhexidine digluconate] |  |  | significantly reduced the viability | more reduction in viability; also recorded: larger reduction of viable counts |  | 
KKVVFKVKFK-NH2 [KSL, Lys-Lys-Val-Val-Phe-Lys-Val-Lys-Phe-Lys-NH2] |  |  |  |  | no degradation peak detected | only an intact KSL peak
